Paper PMC11665553, “12-Lipoxygenase inhibition delays onset of autoimmune diabetes in human gene replacement mice” (JCI Insight, 2024)
Several values for one entry are separate records, joined by “and”; a condition that tells them apart may be missing. Equal entries are not always repeated. Entries after “also recorded” stand apart in the source; their conditions may differ.

Experiments:
[1] = Pharmacokinetics after single p.o. dose in NOD.ShiLt/J mice (plasma LC-MS/MS); assay type: in vivo, mouse; settings: 30 mg/kg p.o., mean ± SD
From the text: The NOD mouse model is a model of T1D that recapitulates many of the immune and β cell features of the disease ([20]). […] To address this question, we introgressed humanized hALOX12 mice onto the NOD background using a speed congenics approach. […] We next measured human 12-LOX protein levels in the NOD.hALOX12 mice.

12-LOX products = assay: Serum lipidomics (LC-MS/MS) of 12-LOX and non-12-LOX products in NOD.hALOX12 mice; assay type: in vivo, mouse
Protocol: Lipidomics analysis (by LC-MS/MS) was performed for a series of 12-LOX products resulting from different fatty acid substrates (Figure 2A).

NOD.hALOX12 mice [2] = assay: Insulitis scoring and pancreas immunostaining (CD3, B220, F4/80, MAC2) in NOD.hALOX12 mice; assay type: in vivo, mouse
NOD.hALOX12 mice [3] = assay: Diabetes incidence (prevention) in NOD.hALOX12 mice; assay type: in vivo, mouse; settings: 30 mg/kg p.o. daily, 6–10 weeks of age
Protocol: (§1) Mice were followed for diabetes development (blood glucose ≥250 mg/dL on 2 consecutive days) until 25 weeks of age (Figure 3A).
Diabetes incidence was determined by observing 2 consecutive blood glucose values greater than 250 mg/dL.

NOD.hALOX12 mice [4] = assay: Diabetes treatment (reversal) in diabetic female NOD.hALOX12 mice; assay type: in vivo, mouse; settings: 30 mg/kg/day p.o. up to 6 weeks
Protocol: as §1
For diabetes treatment studies, female NOD.hALOX12 mice were followed for random-fed blood glucose from 12 to 20 weeks of age.

NOD.hALOX12 mice [5] = assay: Oxidative stress immunostaining (4-HNE, GPx1) in NOD.hALOX12 mice; assay type: in vivo, mouse
From the text: (§2) We, therefore, immunostained pancreatic sections for markers of cell death and proliferation in the islet.
(§3) For immunofluorescent staining, pancreatic sections were stained with the following antibodies: anti-insulin (Dako, IR002; 1:4), anti-glucagon (Santa Cruz Biotechnology, sc514592; 1:50), anti-B220 (BioLegend, 03201; 1:100), anti-CD3 (Abcam, ab16669; 1:200), anti-PCNA (Santa Cruz Biotechnology, sc-7907; 1:100), anti–4-HNE (Abcam, ab46545; 1:200), and anti-GPx1 (Santa Cruz Biotechnology, sc-22145; 1:100). Highly cross-adsorbed Alexa Fluor secondary antibodies (Thermo Fisher Scientific) were used at a dilution of 1:500. Tissue sections were stained with DAPI (Thermo Fisher Scientific) to label cell nuclei. The Nikon A1 confocal microscopy was used to capture images. CellProfiler v4.1 software (https://cellprofiler.org/) was used for image analysis.

human islets = system: human islets; design: method as in PMID 28609824; settings: cited from earlier work
NOD.hALOX12 mice [6] = assay: Islet cell death and proliferation staining (TUNEL, H2A.X, PCNA) in NOD.hALOX12 mice
From the text: as §2
Pancreatic tissues were fixed using 4% paraformaldehyde. After fixation, the tissues were embedded in paraffin and sectioned with a thickness of 5 μm. Three sections per mouse were used for analysis, with each section being spaced 100 μm apart. Tissue sections were immunostained with anti-insulin (ProteinTech, 15848-1-AP; 1:200), anti-glucagon (Abcam, ab92517; 1:200), anti–12-LOX (Thermo Fisher Scientific, PA5-26020; 1:200), anti–12/15-LOX (Abcam, ab80221; 1:200), anti-CD3 (Abcam, ab16669; 1:200), anti-F4/80 (Sigma-Aldrich, D2S9R; 1:150), anti-MAC2 (Thermo Fisher Scientific, EbioM3/38; 1:200), and anti-H2A.X (Cell Signaling Technology, 9718s; 1:200) primary antibodies followed by conjugated anti-rabbit Ig (Vector Laboratories) secondary antibody. A DAB (3,3′-diaminobenzedine) Peroxidase Substrate Kit from Vector Laboratories was used for detection. After immunostaining, the tissue sections were counterstained with hematoxylin (Sigma-Aldrich). Images were acquired using a BZ-X810 fluorescence microscope (Keyence) and β/α cell mass was quantified by insulin^+ or glucagon^+ area and whole pancreas area.
as §3
A TUNEL assay was used to determine β cell death in pancreatic islets. The assay was performed according to the protocol provided by the manufacturer (Abcam) and HRP-DAB chemistry was used for detection. Two sections, spaced 100 μm apart, were used for each mouse. Images were captured using a BZ-X810 fluorescence microscope system (Keyence). The number of TUNEL^+ cells was assessed manually per islet.

B6.hALOX12 mice = assay: Multiple low-dose STZ-induced diabetes in B6.hALOX12 mice (random-fed blood glucose, GTT, β cell mass); settings: for Blood glucose (Fig 1H) / GTT blood glucose (Fig 1I): individual animals; for Random-fed blood glucose (Fig 1E) / GTT blood glucose (Fig 1F): hAlox12 mice, listed as ML355, 30 mg/kg; for Random-fed blood glucose (Fig 1E): 30 mg/kg i.p. + STZ
Protocol: Intraperitoneal GTTs (IPGTTs) were performed in mice after overnight fasting (16 hours). Mice were i.p. injected with glucose at a dose of 1 or 2 g/kg body weight and blood glucose levels were measured at specific time points: 0, 10, 20, 30, 60, 90, and 120 minutes after glucose injection using an AlphaTrak glucometer.
Random-fed glucose levels were measured by tail snip using a glucometer (AlphaTrak), and mice were followed for 20 days after STZ injections. IPGTT was performed on day 4 after STZ treatments after overnight fasting.

[7] = female NOD.hALOX12 mice, 30 mg/kg p.o., 1 week
[8] = serum, individual animals, listed as VLX
[9] = female NOD.hALOX12 mice, 30 mg/kg p.o., 4 weeks
[10] = sheet Fig 2G, pancreas immunostaining, individual animals, listed as VLX
[11] = female NOD.hALOX12 mice, 4 weeks of treatment
[12] = sheet Fig 4E, individual mice, listed as VLX
[13] = sheet Fig 4D, individual mice, listed as VLX
[14] = B6.hALOX12 mice, 30 mg/kg p.o., STZ

COc1cccc(CNc2ccc(S(=O)(=O)Nc3nc4ccccc4s3)cc2)c1O [VLX-1005]
AUClast/D ([1]; dose-normalized): 440 ± 54 ng·h/mL
AUC%extrap_obs [1]: 0.115 ± 0.099%
AUC(0-inf) ([1]; mouse, plasma, po): 13200 ng·h/mL
AUC(0-t) ([1]; mouse, plasma, po): 13200 ng·h/mL
Cmax ([1]; mouse, plasma, po): 14300 ng/mL
half-life ([1]; mouse, plasma, po): 152 ± 24.6 min
MRT inf ([1]; mouse, plasma, po, read-out: MRTinf_obs): 3.81 ± 0.71 h
Serum 12-HEPE level vs vehicle (12-LOX products; [7]): not significantly changed
Serum 12-HETE level vs vehicle (12-LOX products; [7]): significantly reduced
Serum 13-HODE level vs vehicle (12-LOX products; [7]): significantly reduced
Serum 14-HDHA level vs vehicle (12-LOX products; [7]): significantly reduced
Serum 17-HDHA level vs vehicle (12-LOX products; [7]): significantly reduced
12-HEPE (Fig 2B) (12-LOX products; [8]): 14.181 and 5.614 and 0.079 and 3.392 and 10.786
12-HETE (Fig 2B) (12-LOX products; [8]): 1108.62 and 574.602 and 13.903 and 321.764 and 853.064
13(S)-HODE (Fig 2B) (12-LOX products; [8]): 213.641 and 75.17 and 53.113 and 81.494 and 90.355
14-HDHA (Fig 2B) (12-LOX products; [8]): 76.057 and 30.285 and 4.719 and 24.172 and 46.818
15-HETE (Fig 2B) (12-LOX products; [8]): 21.905 and 9.387 and 6.557 and 15.336 and 15.324
17-HDHA (Fig 2B) (12-LOX products; [8]): 7.358 and 2.244 and 2.092 and 3.507 and 3.423
T and B cell infiltration (pancreas pathology) (NOD.hALOX12 mice [2]; [9]): reduced T and B cell infiltration
T cells (CD3+), macrophages (F4/80+), activated macrophages (Mac2+) by immunohistochemistry (NOD.hALOX12 mice [2]; [9]): reductions
Extent of insulitis (insulitis scoring) vs vehicle (NOD.hALOX12 mice [2]; female NOD.hALOX12 mice, 30 mg/kg p.o., 4 weeks (6–10 weeks of age)): significantly reduced
Insulitis score (Fig 2E) (NOD.hALOX12 mice [2]; individual animals, listed as VLX): 1.633 and 1.787 and 1.784 and 1.529 and 1.472
CD3 (NOD.hALOX12 mice [2]; [10]): 1.368e-5 and 2.024e-5 and 0.0002739 and 0 and 2.686e-5
F4/80 (NOD.hALOX12 mice [2]; [10]): 0.00043 and 0.0003528 and 0.0003661 and 0.0004659 and 0.0002593
F4/80 (second Veh/VLX pair) (NOD.hALOX12 mice [2]; [10]): 0.000451 and 0.000344 and 0.000488 and 0.0002845
Mice protected from diabetes development at 25 weeks of age (NOD.hALOX12 mice [3]; female NOD.hALOX12 mice): 60%
Mice protected from diabetes development at 25 weeks of age (NOD.hALOX12 mice [3]; male NOD.hALOX12 mice): 75%
Blood glucose levels vs vehicle in established diabetes (NOD.hALOX12 mice [4]): relative reductions in blood glucose levels
Reversal of established diabetes (NOD.hALOX12 mice [4]): did not observe a reversal in diabetes
4-HNE immunostaining (oxidative stress marker) vs placebo (NOD.hALOX12 mice [5]; [11]): reduced immunostaining
GPx1 levels in β cells (NOD.hALOX12 mice [5]; [11]): increase
4-hne (NOD.hALOX12 mice [5]; [12]): 300.045 and 304.934 and 308.173 and 287.237 and 299.135
GPx1 (NOD.hALOX12 mice [5]; [12]): 416.4 and 443.77 and 439.26 and 458.35
Cytotoxicity in human islets (human islets): without evidence of cytotoxicity
Effect on function of cytokine-treated human islets in vitro (human islets; proinflammatory cytokines): efficacy in reversing the insulin secretory defects; also recorded: protect human islets in vitro against dysfunction caused by proinflammatory cytokines
Islet cell death (TUNEL, H2A.X staining) vs vehicle (NOD.hALOX12 mice [6]; [11]): decreased islet cell death
β cell proliferation (PCNA immunostaining) vs vehicle (NOD.hALOX12 mice [6]; [11]): decreased β cell proliferation
H2Ax (NOD.hALOX12 mice [6]; [13]): 0.25 and 0.166 and 0 and 0.14
PCNA (NOD.hALOX12 mice [6]; [13]): 1.4 and 1.2 and 0.9 and 1.83
Glucose tolerance vs vehicle (B6.hALOX12 mice; [14]): significantly improved glucose tolerance
Random-fed blood glucose levels vs vehicle (B6.hALOX12 mice; [14]): lower random-fed blood glucose levels
β cell mass at end of study vs vehicle (B6.hALOX12 mice; [14]): greater β cell mass
GTT AUC (Fig 1J) (B6.hALOX12 mice; B6.hALOX12 mice, 30 mg/kg p.o., day 4 after STZ, individual mice, 30 mg/kg): 38575 and 27605 and 37915 and 32740 and 28655 and 39615
β cell mass (Fig 1K) (B6.hALOX12 mice; B6.hALOX12 mice, 30 mg/kg p.o., day 26 after STZ, individual mice, listed as VLX, 30 mg/kg): 0.4287 and 0.8456 and 0.5623 and 0.6492 and 1.024
Glucose tolerance (GTT) (B6.hALOX12 mice; B6.hALOX12 vs WT C57BL/6J mice, both 30 mg/kg i.p., after STZ): improved glucose tolerance
Blood glucose (Fig 1H) (B6.hALOX12 mice; day 1): 293 and 265 and 377 and 281 and 389 and 367
Blood glucose (Fig 1H) (B6.hALOX12 mice; day 4): 209 and 312 and 289 and 205 and 311 and 272
Blood glucose (Fig 1H) (B6.hALOX12 mice; day 8): 346 and 273 and 297 and 307 and 219 and 303
Blood glucose (Fig 1H) (B6.hALOX12 mice; day 11): 435 and 460 and 385 and 378 and 441 and 298
Blood glucose (Fig 1H) (B6.hALOX12 mice; day 16): 427 and 543 and 470 and 301 and 405 and 380
Blood glucose (Fig 1H) (B6.hALOX12 mice; day 18): 571 and 573 and 426 and 374 and 417 and 346
Blood glucose (Fig 1H) (B6.hALOX12 mice; day 23): 474 and 543 and 550 and 331 and 533 and 356
Blood glucose (Fig 1H) (B6.hALOX12 mice; day 25): 630 and 501 and 416 and 359 and 457 and 307
Blood glucose (Fig 1H) (B6.hALOX12 mice; day 28): 426 and 551 and 530 and 363 and 483 and 470
Blood glucose (Fig 1H) (B6.hALOX12 mice; day -3): 296 and 262 and 381 and 299 and 367 and 314
GTT AUC (Fig 1G) (B6.hALOX12 mice; hALOX12 mice, 30 mg/kg i.p., day 4 after STZ, individual mice, 30 mg/kg): 24945 and 29635 and 27915 and 36735
Random-fed blood glucose (Fig 1E) (B6.hALOX12 mice; day 0, individual mice): 184 and 194 and 153 and 159
Random-fed blood glucose (Fig 1E) (B6.hALOX12 mice; day 5, individual mice): 174 and 179 and 181 and 131
Random-fed blood glucose (Fig 1E) (B6.hALOX12 mice; day 10, individual mice): 195 and 201 and 210 and 180
Random-fed blood glucose (Fig 1E) (B6.hALOX12 mice; day 15, individual mice): 167 (2×) and 210 and 214
Random-fed blood glucose (Fig 1E) (B6.hALOX12 mice; day 22, individual mice): 193 and 223 and 208 and 188
Random-fed blood glucose (Fig 1E) (B6.hALOX12 mice; day 27, individual mice): 216 and 217 and 226 and 193
Random-fed blood glucose (Fig 1E) (B6.hALOX12 mice; day -5, individual mice): 194 and 201 and 167 and 185
GTT blood glucose (Fig 1F) (B6.hALOX12 mice; 30 mg/kg i.p., day 4 after STZ, 0 min after glucose, individual mice): 184 and 132 and 122 and 134
GTT blood glucose (Fig 1F) (B6.hALOX12 mice; 30 mg/kg i.p., day 4 after STZ, 10 min after glucose, individual mice): 401 and 364 and 354 and 369
GTT blood glucose (Fig 1F) (B6.hALOX12 mice; 30 mg/kg i.p., day 4 after STZ, 20 min after glucose, individual mice): 610 and 557 and 487 and 467
GTT blood glucose (Fig 1F) (B6.hALOX12 mice; 30 mg/kg i.p., day 4 after STZ, 30 min after glucose, individual mice): 512 and 597 and 398 and 458
GTT blood glucose (Fig 1F) (B6.hALOX12 mice; 30 mg/kg i.p., day 4 after STZ, 60 min after glucose, individual mice): 361 and 446 and 310 and 375
GTT blood glucose (Fig 1F) (B6.hALOX12 mice; 30 mg/kg i.p., day 4 after STZ, 90 min after glucose, individual mice): 221 and 387 and 284 and 306
GTT blood glucose (Fig 1F) (B6.hALOX12 mice; 30 mg/kg i.p., day 4 after STZ, 120 min after glucose, individual mice): 159 and 209 and 223 and 281
Protection from STZ-induced diabetes (B6.hALOX12 mice; male B6.hALOX12 mice, 30 mg/kg i.p. daily peri-STZ): complete protection from STZ-induced diabetes
GTT blood glucose (Fig 1I) (B6.hALOX12 mice; time 0): 403 and 326 and 234 and 245 and 279 and 370
GTT blood glucose (Fig 1I) (B6.hALOX12 mice; time 10): 585 and 462 (2×) and 543 and 359 and 482
GTT blood glucose (Fig 1I) (B6.hALOX12 mice; time 20): 636 and 668 and 606 and 558 and 520 and 577
GTT blood glucose (Fig 1I) (B6.hALOX12 mice; time 30): 577 and 520 and 660 and 662 and 560 and 646
GTT blood glucose (Fig 1I) (B6.hALOX12 mice; time 60): 488 and 436 and 530 and 581 and 420 and 589
GTT blood glucose (Fig 1I) (B6.hALOX12 mice; time 90): 345 and 329 and 461 and 457 and 365 and 408
GTT blood glucose (Fig 1I) (B6.hALOX12 mice; time 120): 239 and 265 and 375 and 360 and 216 and 283
